Experimental data reported in patent publication US20180000085A1, “USE OF PICOLINAMIDE COMPOUNDS WITH FUNGICIDAL ACTIVITY” (DOW AGROSCIENCES LLC, priority 2014, published 2018).

Experiments:
[1] = system: Zymoseptoria tritici; assay: Leaf blotch of wheat (SEPTTR) disease control on wheat seedlings; format: in vivo; design: key to SEPTTR 1DP, HV activity at 100 ppm (% control rating) / SEPTTR 3DC, HV activity at 100 ppm (% control rating) / SEPTTR disease control, 1DP / SEPTTR disease control, 3DC / SEPTTR 1DP disease control rating, HV activity / SEPTTR 3DC disease control rating, HV activity / SEPTTR 3DC, LV activity at 125.1 g/H (% Control rating) / SEPTTR 1DP, LV activity at 125.1 g/H (% Control rating) / SEPTTR 1DP disease control rating, LV activity at 125.1 g/H / SEPTTR 3DC disease control rating, LV activity at 125.1 g/H / SEPTTR 3DC disease control rating, HV activity at 100 ppm / SEPTTR 1DP disease control rating, HV activity at 100 ppm / HV activity at 100 ppm SEPTTR 3DC (disease control rating) / HV activity at 100 ppm SEPTTR 1DP (disease control rating) / LV activity at 125.1 g/H SEPTTR 1DP (disease control rating) / LV activity at 125.1 g/H SEPTTR 3DC (disease control rating): A: > 80; B: ≤ 80; C: Not Tested; D: No Activity Observed in the Reported Assay; conditions: for SEPTTR 1DP disease control rating, HV activity / SEPTTR 3DC disease control rating, HV activity: HV application at 100 ppm; for SEPTTR 1DP disease control rating, LV activity at 125.1 g/H / SEPTTR 3DC disease control rating, LV activity at 125.1 g/H / LV activity at 125.1 g/H SEPTTR 1DP (disease control rating) / LV activity at 125.1 g/H SEPTTR 3DC (disease control rating) / SEPTTR 1DP, LV activity at 125.1 g/H (% Control rating) / SEPTTR 3DC, LV activity at 125.1 g/H (% Control rating): low volume application
[2] = system: Puccinia triticina; assay: Wheat brown rust (PUCCRT) disease control on wheat seedlings; format: in vivo; design: key to PUCCRT 3DC, HV activity at 100 ppm (% control rating) / PUCCRT disease control, 3DC / PUCCRT 1DP disease control rating, HV activity / PUCCRT 3DC disease control rating, HV activity / PUCCRT 3DC, LV activity at 125.1 g/H (% Control rating) / PUCCRT 1DP, LV activity at 125.1 g/H (% Control rating) / PUCCRT 3DC disease control rating, LV activity at 125.1 g/H / PUCCRT 1DP disease control rating, LV activity at 125.1 g/H / PUCCRT 3DC disease control rating, HV activity at 100 ppm / PUCCRT 1DP disease control rating, HV activity at 100 ppm / HV activity at 100 ppm PUCCRT 3DC (disease control rating) / LV activity at 125.1 g/H PUCCRT 1DP (disease control rating) / LV activity at 125.1 g/H PUCCRT 3DC (disease control rating): A: > 80; B: ≤ 80; C: Not Tested; D: No Activity Observed in the Reported Assay; conditions: for PUCCRT 1DP disease control rating, HV activity / PUCCRT 3DC disease control rating, HV activity: HV application at 100 ppm; for PUCCRT 1DP disease control rating, LV activity at 125.1 g/H / PUCCRT 3DC disease control rating, LV activity at 125.1 g/H / LV activity at 125.1 g/H PUCCRT 1DP (disease control rating) / LV activity at 125.1 g/H PUCCRT 3DC (disease control rating) / PUCCRT 1DP, LV activity at 125.1 g/H (% Control rating) / PUCCRT 3DC, LV activity at 125.1 g/H (% Control rating): low volume application
[3] = 1 Day Protectant, wheat leaf blotch
[4] = 3 Day Curative, wheat leaf blotch
[5] = 1 Day Protectant, wheat brown rust
[6] = 3 Day Curative, wheat brown rust
[7] = high volume application, 100 ppm, 1 day protectant
[8] = high volume application, 100 ppm, 3 day curative

Row | Structure (SMILES) | SEPTTR 1DP disease control rating, HV activity [1, 3] | SEPTTR 3DC disease control rating, HV activity [1, 4] | PUCCRT 1DP disease control rating, HV activity [2, 5] | PUCCRT 3DC disease control rating, HV activity [2, 6] | SEPTTR 1DP, LV activity at 125.1 g/H (% Control rating) ([1]; 1 Day Protectant) | SEPTTR 3DC, LV activity at 125.1 g/H (% Control rating) ([1]; 3 Day Curative) | PUCCRT 1DP, LV activity at 125.1 g/H (% Control rating) ([2]; 1 Day Protectant) | PUCCRT 3DC, LV activity at 125.1 g/H (% Control rating) ([2]; 3 Day Curative) | further results
1 | COc1ccnc(C(=O)N[C@H](C)C(=O)O[C@H](C)[C@@H](Oc2ccccc2)c2ccccc2)c1O [Cmpd 352] | D | B (≤ 80) | D | D |  |  |  |  | 
2 | COc1ccnc(C(=O)N[C@@H](C)C(=O)O[C@@H](C)[C@H](OCC2CC2)C2CC2)c1O [Cmpd 1002] |  |  |  |  |  |  |  |  | SEPTTR 1DP disease control rating, HV activity at 100 ppm [1, 7]: B (≤ 80); SEPTTR 3DC disease control rating, HV activity at 100 ppm [1, 8]: B (≤ 80); PUCCRT 1DP disease control rating, HV activity at 100 ppm [2, 7]: A (> 80); PUCCRT 3DC disease control rating, HV activity at 100 ppm [2, 8]: A (> 80)
3 | C=CC[C@@H](Oc1ccc(Cl)cc1Cl)[C@H](C)OC(=O)[C@H](C)NC(=O)c1nccc(OC)c1OCOC(C)=O [Cmpd 700] |  |  |  |  |  |  |  |  | SEPTTR 1DP disease control rating, LV activity at 125.1 g/H ([1]; 1 day protectant): D; SEPTTR 3DC disease control rating, LV activity at 125.1 g/H ([1]; 3 day curative): B (≤ 80); PUCCRT 1DP disease control rating, LV activity at 125.1 g/H ([2]; 1 day protectant): A (> 80); PUCCRT 3DC disease control rating, LV activity at 125.1 g/H ([2]; 3 day curative): A (> 80)
4 | COc1ccnc(C(=O)N[C@@H](C)C(=O)O[C@@H](C)[C@H](Oc2ccc(Cl)cc2Cl)C2CCCC2)c1O [Cmpd 346] | D | B (≤ 80) | B (≤ 80) | D |  |  |  |  | 
5 | C=CC[C@@H](OCC1CC1)[C@H](C)OC(=O)[C@H](C)NC(=O)c1nccc(OC)c1OC(C)=O [Cmpd 1085] |  |  |  |  |  |  |  |  | LV activity at 125.1 g/H SEPTTR 1DP (disease control rating) [1, 3]: D; LV activity at 125.1 g/H SEPTTR 3DC (disease control rating) [1, 4]: D; LV activity at 125.1 g/H PUCCRT 1DP (disease control rating) [2, 5]: D; LV activity at 125.1 g/H PUCCRT 3DC (disease control rating) [2, 6]: B (≤ 80)
6 | CCC(CC)[C@@H](Oc1cccc(-c2ccccc2)c1)[C@H](C)OC(=O)[C@@H](NC(=O)c1nccc(OC)c1O)C(C)C [Cmpd 413] | B (≤ 80) | D | B (≤ 80) | D |  |  |  |  | 
7 | CC[C@H](OC)[C@@H](Oc1ccccc1)[C@H](C)OC(=O)[C@H](C)NC(=O)c1nccc(OC)c1O [Cmpd 403] |  |  |  |  |  |  |  |  | SEPTTR 1DP disease control rating, LV activity ([1]; Low volume application at 125.1 g/H, 1 Day Protectant, wheat leaf blotch): B (≤ 80); SEPTTR 3DC disease control rating, LV activity ([1]; Low volume application at 125.1 g/H, 3 Day Curative, wheat leaf blotch): A (> 80); PUCCRT 1DP disease control rating, LV activity ([2]; Low volume application at 125.1 g/H, 1 Day Protectant, wheat brown rust): A (> 80); PUCCRT 3DC disease control rating, LV activity ([2]; Low volume application at 125.1 g/H, 3 Day Curative, wheat brown rust): A (> 80)
8 | CC[C@H](C)[C@H](NC(=O)c1nccc(OC)c1OC(C)=O)C(=O)O[C@@H](C)[C@H](Oc1cc(F)ccc1F)C(C)C [Cmpd 630] |  |  |  |  | D | D | A (> 80) | A (> 80) | 
9 | COc1ccnc(C(=O)NC(C)C(=O)OC(C)COc2ccccc2)c1OC(=O)C1CC1 (centres unmarked) [Cmpd 541] |  |  |  |  | B (≤ 80) | B (≤ 80) | D | D | 
10 | CCC[C@@H](Oc1cccc(OC)c1)[C@H](C)OC(=O)[C@H](C)NC(=O)c1nccc(OC)c1OC(C)=O [Cmpd 1063] |  |  |  |  |  |  |  |  | LV activity at 125.1 g/H SEPTTR 1DP (disease control rating) [1, 3]: B (≤ 80); LV activity at 125.1 g/H SEPTTR 3DC (disease control rating) [1, 4]: A (> 80); LV activity at 125.1 g/H PUCCRT 1DP (disease control rating) [2, 5]: A (> 80); LV activity at 125.1 g/H PUCCRT 3DC (disease control rating) [2, 6]: A (> 80)
11 | COc1ccnc(C(=O)N[C@@H](C)C(=O)O[C@@H](C)[C@H](Oc2ccc(C(F)(F)F)cc2)c2ccccc2)c1OC(C)=O [Cmpd 583] |  |  |  |  | A (> 80) | A (> 80) | A (> 80) | B (≤ 80) | 
12 | COc1ccnc(C(=O)N[C@@H](C)C(=O)O[C@@H](C)[C@H](Oc2cccc(-c3ccccc3)c2)C(C)C)c1OCOC(C)=O [Cmpd 613] |  |  |  |  | B (≤ 80) | B (≤ 80) | A (> 80) | A (> 80) | 
13 | C=CCC(Oc1ccc(Cl)cc1Cl)C(C)OC(=O)C(C)NC(=O)c1nccc(OC)c1O (centres unmarked) [Cmpd 439] | B (≤ 80) | D | A (> 80) | A (> 80) |  |  |  |  | 
14 | COc1ccnc(C(=O)N[C@@H](C)C(=O)O[C@@H](C)[C@@H](Oc2ccccc2)c2cccnc2)c1OC(C)=O [Cmpd 849] |  |  |  |  |  |  |  |  | SEPTTR 1DP disease control rating, LV activity at 125.1 g/H ([1]; 1 day protectant): D; SEPTTR 3DC disease control rating, LV activity at 125.1 g/H ([1]; 3 day curative): B (≤ 80); PUCCRT 1DP disease control rating, LV activity at 125.1 g/H ([2]; 1 day protectant): D; PUCCRT 3DC disease control rating, LV activity at 125.1 g/H ([2]; 3 day curative): B (≤ 80)
15 | COc1ccnc(C(=O)N[C@@H](C)C(=O)O[C@@H](C)[C@@H](Cc2ccccc2)OCC2CC2)c1O [Cmpd 344] | D | B (≤ 80) | B (≤ 80) | A (> 80) |  |  |  |  | 
16 | CCCOCC(C)OC(=O)C(C)NC(=O)c1nccc(OC)c1OC(C)=O (centres unmarked) [Cmpd 521] |  |  |  |  | D | D | D | D | 
17 | COc1ccnc(C(=O)N[C@@H](C)C(=O)O[C@@H](C)[C@@H](Cc2ccccc2)OC)c1O [Cmpd 342] | D | B (≤ 80) | B (≤ 80) | A (> 80) |  |  |  |  | 
18 | CC[C@H](OC(=O)[C@H](C)NC(=O)c1nccc(OC)c1OCOC(C)=O)[C@H](Oc1ccccc1)C(C)C [Cmpd 877] |  |  |  |  |  |  |  |  | SEPTTR 1DP disease control rating, LV activity at 125.1 g/H ([1]; 1 day protectant): B (≤ 80); SEPTTR 3DC disease control rating, LV activity at 125.1 g/H ([1]; 3 day curative): B (≤ 80); PUCCRT 1DP disease control rating, LV activity at 125.1 g/H ([2]; 1 day protectant): A (> 80); PUCCRT 3DC disease control rating, LV activity at 125.1 g/H ([2]; 3 day curative): A (> 80)
19 | CC(C)C[C@@H](Oc1cc(F)ccc1F)[C@H](C)OC(=O)[C@H](C)NC(=O)c1ncccc1O [Cmpd 1036] |  |  |  |  |  |  |  |  | HV activity at 100 ppm SEPTTR 1DP (disease control rating) ([1]; HV application, 100 ppm, 1 Day Protectant, wheat leaf blotch): B (≤ 80); HV activity at 100 ppm SEPTTR 3DC (disease control rating) ([1]; HV application, 100 ppm, 3 Day Curative, wheat leaf blotch): D; HV activity at 100 ppm PUCCRT 1DP (disease control rating) ([2]; HV application, 100 ppm, 1 Day Protectant, wheat brown rust): A (> 80); HV activity at 100 ppm PUCCRT 3DC (disease control rating) ([2]; HV application, 100 ppm, 3 Day Curative, wheat brown rust): B (≤ 80)
20 | C=CC[C@@H](OCc1ccccc1)[C@H](C)OC(=O)[C@H](C)NC(=O)c1nccc(OC)c1OCOC(C)=O [Cmpd 516] |  |  |  |  | B (≤ 80) | D | A (> 80) | A (> 80) | 
